Measured values from US6472350B1, “Utilization of 3-phenyl-pyrones for pest control” (Bayer Aktiengesellschaft, priority 1998, dated 2002).

Tests used:
Format in all cases: in vivo
[1] = tested on: green rice leaf hoppers (Nephotettix cincticeps); experiment: Nephotettix test; conditions: active compound concentration 0.1 %, rice seedlings (Oryza sativa) dipped
Description: Nephotettix Test Solvent: 7 parts by weight of dimethylformamide Emulsifier: 1 part by weight of alkylaryl polyglycol ether To produce a suitable preparation of active compound, 1 part by weight of active compound is mixed with the stated amounts of solvent and emulsifier, and the concentrate is diluted with emulsifier-containing water to the desired concentration. Rice seedlings (Oryza sativa) are treated by being dipped into the active compound preparation of the desired concentration and are populated with green rice leaf hoppers (Nephotettix cincticeps) while the leaves are still moist. After the desired period of time, the kill in % is determined. 100% means that all leaf hoppers have been killed; 0% means that none of the leaf hoppers have been killed.

[2] = tested on: larvae of the mustard beetle (Phaedon cochleariae); experiment: Phaedon larvae test; conditions: active compound concentration 0.1 %, cabbage leaves (Brassica oleracea) dipped
Description: (§1) Phaedon Larvae Test Solvent: 7 parts by weight of dimethylformamide Emulsifier: 1 part by weight of alkylaryl polyglycol ether To produce a suitable preparation of active compound, 1 part by weight of active compound is mixed with the stated amounts of solvent and emulsifier, and the concentrate is diluted with emulsifier-containing water to the desired concentration. Cabbage leaves (Brassica oleracea) are treated by being dipped into the preparation of active compound of the desired concentration and are populated with larvae of the mustard beetle (Phaedon cochleariae) while the leaves are still moist. After the desired period of time, the kill in % is determined. 100% means that all beetle larvae have been killed; 0% means that none of the beetle larvae have been killed.

[3] = tested on: caterpillars of the diamond back moth (Plutella xylostella); experiment: Plutella test; conditions: active compound concentration 0.1 %, cabbage leaves (Brassica oleracea) dipped
[4] = tested on: peach aphid (Myzus persicae); experiment: Myzus test; conditions: active compound concentration 0.1 %, infested cabbage leaves (Brassica oleracea) dipped
Description: as §1, with “Myzus” for “Phaedon Larvae”, “oleracea) which are heavily infested by the peach aphid (Myzus persicae)” for “oleracea)”, “concentration.” for “concentration and are populated with larvae of the mustard beetle (Phaedon cochleariae) while the leaves are still moist.”, “aphids” for “beetle larvae”

`Cc1cc(Cl)ccc1-c1c(O)c(C)c(-c2ccc(F)cc2)oc1=O` [drawing 11] was tested, and the “Kill in % after 6 d” value [1] was 100%.
For `Cc1cc(F)ccc1-c1c(O)c(C)c(-c2ccccn2)oc1=O` [drawing 12], the “Kill in % after 7 d” value [2] was 100%.
`Cc1cc(F)ccc1-c1c(O)c(C)c(-c2ccccn2)oc1=O` [drawing 14] was tested, and the “Kill in % after 7 d” value [3] was 100%.
With `Cc1cc(F)ccc1-c1c(O)c(C)c(-c2ccccn2)oc1=O` [drawing 10] the “Kill in % after 6 d” value [4] was 98%.
For `Cc1cc(Cl)ccc1-c1c(O)c(C)c(-c2ccc(F)cc2)oc1=O` [drawing 13], the “Kill in % after 7 d” value [3] was 100%.
